According to patent US20220230723A1, “Electronically Supervised Administration of a Pharmaceutical Composition” (Celon Pharma S.A., priority 2019, published 2022):
Where a name gives a salt, the structure may show the parent alone.

Key:
[1] = cited from earlier work
[2] = cited from earlier work; remark: listed apart in the source
[3] = cited from earlier work; remark: listed apart in the source
[4] = nebulized saline solution, inhalation; cited from earlier work
[5] = Literature pharmacokinetics after intravenous infusion; type: in vivo; conditions: human, plasma, 0.2 mg/kg; 0.20 mg/kg 40 minutes intravenous infusion, predicted on the basis of literature data
Protocol: Administration route with currently expected minimum level of metabolites is an intravenous one. After intravenous infusion of racemic ketamine at 0.5 mg/kg for 40 minutes, the parent drug maintains its systemic concentration about 200 ng/ml for about 40 minutes, afterwards the concentration falls down quickly with a half-period below 2 hours. Simultaneously, norketamine reaches its maximum concentration at the level of 10-20% of ketamine concentration. The percentage of area-under-curve (AUC) norketamine to ketamine is about 20-40%.

NMDA receptor = conditions: cited from earlier work
[6] = after intravenous infusion of racemic ketamine
[7] = after oral administration of ketamine

Structure (SMILES): CNC1(c2ccccc2Cl)CCCCC1=O (racemic) [ketamine]
- half-period of concentration fall ([1]; after intravenous infusion 0.5 mg/kg for 40 minutes): below 2 hours
- systemic concentration of parent drug ([1]; intravenous infusion 0.5 mg/kg for 40 minutes, maintained about 40 minutes): about 200 ng/ml
- bioavailability ([2]; orally administered): 16-20%
- share of patients with treatment-resistant depression responsive to treatment ([3]; human, in vivo): about ⅔

Structure (SMILES): CN[C@]1(c2ccccc2Cl)CCCCC1=O [esketamine hydrochloride]
- inhaled bioavailability [4]: reduced due to both dose-independent and dose-dependent impairment of pulmonary uptake

Structure (SMILES): CN[C@]1(c2ccccc2Cl)CCCCC1=O [esketamine]
- concentration at 40 min [5]: 60 to 100 ng/mL
- antidepressant effects ([3]; TRD patients, 40-minute i.v. infusion of 0.20 mg/kg or 0.40 mg/kg (Singh et al.)): rapid onset of robust antidepressant effects

Structure (SMILES): NC1(c2ccccc2Cl)CCCCC1=O (stereo not drawn) [norketamine]
- maximum concentration as % of ketamine concentration [1, 6]: 10-20%
- percentage of AUC norketamine to ketamine [1, 6]: 20-40%
- AUC for norketamine relative to ketamine [2, 7]: exceeding 1000%
- norketamine level as % of ketamine level [2, 7]: 500-1000%
- activity on NMDA receptor relative to ketamine (NMDA receptor): many times less active than ketamine
